In patent publication US20100099109A1, “Methods for Analyzing Drug Response” (NODALITY, INC., A DELAWARE CORPORATION, priority 2008, published 2010):
“Also recorded” adds a separate entry of the source.

Assays:
[1] = tested on: Peripheral blood mononuclear cells and bone marrow mononuclear cells derived from AML and healthy samples; assay: Expression marker levels after Mylotarg exposure; type: cell-based
KG-1 cells = assay: Mylotarg exposure, multiparameter flow cytometry of DNA damage, cell cycle and apoptosis; type: cell-based
Source text: (§1) ATM activity also phosphorylates Chk2 and p53. […] Cyclin B1 is produced during the G2 phase of the cell cycle and its accumulation drives the cell cycle into M phase. Therefore, low levels of Cyclin B1 mark G1 and S phases, high levels mark G2 phase, and higher levels mark M phase. Histone H3 (S28) becomes phosphorylated in M phase, making p-Histone H3(S28) a useful marker of cells in M phase and not G2. It is also possible to monitor the G2/M phases of the cell cycle by measuring the phosphorylation status of Cdk1, previously known as Cdc2, a cyclin-dependent protein kinase that controls the cell cycle entry from G2 to M phase. An inhibitory phosphorylation on Cdk1 is removed by CDC25C in the M phase transition, allowing G2 cells to be distinguished from M cells based on levels of p-Cdk1. […] Treating cells with the microtubule polymerization inhibitor Nocodazole induces cells cycle arrest in M phase without DNA damage.
(§2) The experimental measurements included forward and side scatter, the use of viability dyes (amine aqua and propidium iodide (PI)), and determination of cell cycle and apoptosis by measuring DNA content with DRAQ5. Additionally, cell cycle progression was measured by determining levels of cyclin B1, phosphorylated histone H3, and phosphorylated CDK-1. All these determinations were made in freshly thawed as well as in cultured cycling cells.
(§3) The experiments were conducted in a similar fashion as shown above for examples 1 and 2. […] After incubation with fluorochrome-conjugated antibody panels that recognized: p-H2AX, p-Chk2, p-ATM, p-53, cleaved PARP and cleaved caspase 3, cells were processed for cytometry as described above.

GDM-1 cells = assay: as above; type: cell-based
Source text: as §1, §2, §3

primary AML cell sample = assay: Mylotarg response signatures (DNA damage response by p-CHK2/p-H2AX; apoptosis by cleaved PARP, FSC and viability dyes), flow cytometry; type: cell-based, human
Procedure: The present illustrative example represents how to analyze cells in one embodiment of the present invention. There are several steps in the process, such as treatment with modulator, incubation with antibodies, and processing sample for acquisition of cells on the cytometer. Treatment with modulator(s) can start with thawed cryopreserved cells and end with cells fixed in PFA and permeabilized in methanol. Then the cells can be incubated with an antibody directed to a particular protein of interest and then analyzed using a flow cytometer. A protocol similar to the following was used to analyze AML cells from patient samples. The materials and methods described in this example can be used and/or were used in the other examples described below.
Cell thawing and live/dead staining: Cells are thawed_in a 37° C. water bath, gently resuspend in the vial, and transferred to a 15 mL conical tube. The 15 mL tube is centrifuged at 930 RPM (200×g) for 8 minutes at room temperature. The supernatant is then aspirated, and the pellet is gently resuspended in 1 mL media A. The cell suspension is filtered through a 70 um cell strainer into a new 15 mL tube. The cell strainer is then rinsed with 1 mL media A and another 12 mL of media A into the 15 mL tube. Collected cells are then mixed into an even suspension. A 20 μl, aliquot of this suspension is immediately transferred into a 96-well plate containing 180 μl, PBS+4% FBS+CD45 Alexa 700+PI to determine cell count and viability post spin. After the determination, the 15 mL tubes are centrifuged at 930 RPM (200×g) for 8 minutes at room temperature. The resulting supernatant is aspirated, and the cells are gently resuspended in 4 mL PBS+4 μl, Amine Aqua (another equivalent viability dye can be used instead) and incubated for 15 min in a 37° C. incubator. 10 mL RPMI+1% FBS are added to the cell suspension, followed by inversion mixing. The 15 mL tubes are centrifuged at 930 RPM (200×g) for 8 minutes at room temperature. The stained cells are then resuspended in Media A at the desired cell concentration (1.25×10^6/mL). • a. Samples with low numbers of cells (<18.5×10^6) are resuspend in up to 15 mL of media. • b. For samples with high numbers of cells (>18.5×10^6), the volume is raised to 10 mL with media A and the desired volume is transferred to a new 15 mL tube, adjusting the cell concentration to 1.25×10^6 cells/mL. 1.6 mL of the above cell suspension are then transferred into wells of a multi-well plate, from which 80 ul are distributed into each well of a subsequent plate. Plates are covered with a lid (Nunc) and placed in a 37° C. incubator for 2 hours to rest.
Treatment of Cells with a Modulator: A concentration for each stimulant that is five fold (5×) more than the final concentration is prepared using Media A as diluent. The 5× stimulants are arrayed in a standard 96 well v-bottom plate that correspond to the wells on the plate with cells to be stimulated. Fixative is prepared by dilution of stock 16% paraformaldehyde with PBS to a concentration that is 1.5×, then placed in a 37° C. water bath. Once the plated cells have completed their incubation, the plate(s) are taken out of the incubator and place in a 37° C. water bath next to the pipette apparatus. Prior to addition of stimulant, each plate of cells is taken from the water bath and gently swirled to resuspend any settled cells. The stimulant is pipetted into the cell plate, which is then held over a vortexer set to “7” and mixed for 5 seconds, and followed by the return of the deep well plate to the water bath.
Fixing Cells: 200 μL of the fixative solution (final concentration is 1.6%) is dispensed into wells and then mixed on the titer plate shaker on high for 5 seconds. The plate is then covered with foil sealer and floated in 37° C. water bath for 10 min, followed by a 6 min spin at 2000 rpm at room temperature.

[2] = tested on: Mylotarg sensitive cell lines; assay: Mylotarg exposure and modulated signaling in sensitive cell lines; type: cell-based
Procedure: as §2
(§4) After incubation with fluorochrome-conjugated antibody panels that recognized: p-H2AX, p-Chk2, p-ATM, p-53, cleaved PARP and cleaved caspase 3, cells were processed for cytometry as described above.
(§5) Experiments were conducted in which cell lines were exposed for 5-15 minutes to growth factors and cytokines, after which cells were fixed, permeabilized and incubated with panels of fluorochrome-conjugated antibody panels that recognized intracellular signaling molecules. After processing, cells were acquired on the cytometer.

Healthy myeloid cells = assay: Mylotarg treatment of healthy myeloid cells (DNA damage and apoptosis); type: cell-based; conditions: at 72 h
Source text: In some embodiments, the invention may identify a set of drug response signatures in disease cells. The drug response signature is a profile of the activation levels of activatable elements following in vitro exposure of patient samples to a drug and one or more modulators, and can predict whether patients may respond to the drug. […] In some embodiments, other measurements of cell viability may be used, for example cleaved caspase 3, or amount of dyes staining or other stains, for example: propidium idodide, SYTOX, TUNEL, or acridine orange. […] For review, see van Attikum H., and Gasser S. M. Trends in Cell Biology 19: pp. 207-17 (2009). ATR and ATM kinase activity in response to DNA damage activates Chk1 and Chk2, respectively. […] For review, see Abraham, R. T. Cell cycle checkpoint signaling through the ATM and ATR kinases. Genes & Dev. 15: 2177-96 (2001). […] This is also seen at earlier timepoints.

U937 cell line = assay: Mylotarg/Nocodazole exposure, multiparameter flow cytometry of DNA damage, cell cycle and apoptosis; type: cell-based
Source text: as §1, §2, §4

[3] = tested on: Mylotarg refractory cell lines; assay: Mylotarg exposure and modulated signaling in resistant cell lines; type: cell-based
Procedure: as §2, §4, §5

Ramos cells = assay: Mylotarg exposure, multiparameter flow cytometry of DNA damage and cell cycle; type: cell-based
Source text: as §1
as §2, with “cells. […]” for “cells.”

[4] = lyophilized powder; cited from earlier work

gemtuzumab ozogamicin [Mylotarg]
expression levels of the CD33 and CD13 phenotypic markers for myeloid cells ([1]; exposed for 6 hours): reduction
CD11b levels ([1]; same exposure conditions): remain unchanged
CD13 levels ([1]; twenty-four (24) hours of exposure): reduced
DNA damage response (levels of p-H2AX, p-p53, p-Chk2, p-ATM) (KG-1 cells): does not induce changes; also recorded: this was not the case
cell cycle arrest and apoptosis after Mylotarg treatment (KG-1 cells): resistant to cell cycle arrest and apoptosis
proportion of populations of cells arrested in the cell cycle (p-Histone H3(S28), p-CDK1, CyclinB1) (KG-1 cells): does not largely increase
DNA damage response (levels of p-H2AX, p-p53, p-Chk2, p-ATM) (GDM-1 cells): does not induce changes; also recorded: this was not the case
cell cycle arrest and apoptosis after Mylotarg treatment (GDM-1 cells): resistant to cell cycle arrest and apoptosis
proportion of populations of cells arrested in the cell cycle (p-Histone H3(S28), p-CDK1, CyclinB1) (GDM-1 cells): does not largely increase
CD33++ cells with induced DNA damage response, as measured by p-CHK2 and p-H2AX (primary AML cell sample; signature 1 sample, 6 hours of exposure to Mylotarg): approximately 60%
live myeloid cells becoming PARP+ (primary AML cell sample; signature 1 sample, after 24 and 48 hours): 22%
CD33++ cells with induced DNA damage response, as measured by p-CHK2 and p-H2AX (primary AML cell sample; signature 2 sample, 6 hours of exposure to Mylotarg): approximately 80%
live myeloid cells becoming PARP+ (primary AML cell sample; signature 2 sample, after 24 or 48 hours): 4%
live myeloid cells becoming PARP+ (primary AML cell sample; signature 3 sample): 8%
CD33+ cells with induced DNA damage response, as measured by p-CHK2 and p-H2AX (primary AML cell sample; signature 3 sample, 6 hours of exposure to Mylotarg): approximately 15%
G2/M arrest [2]: G2/M arrest
cyclin B1 levels [2]: increase in cyclin B1 levels; also recorded: increased cyclin B1 levels
p-H2AX and p-Chk2 [2]: increased p-H2AX and p-Chk2 without transporter inhibitor
cell death (scatter, viability and DNA content dyes) ([2]; compared to refractory cell lines): more cell death; also recorded: increased percentage of dead cells
cleaved PARP and apoptosis (Healthy myeloid cells): increases in cleaved PARP and apoptosis
levels of p-Chk2, p-H2AX, p-ATM, p-P53 (Healthy myeloid cells): increased levels
DNA damage response (levels of p-H2AX, p-Chk2, p-ATM, p-53) (U937 cell line): increased levels; also recorded: significant increase
cell cycle arrest (Cyclin B1, p-Histone H3(S28), p-Cdk1) (U937 cell line; 24 hours exposure): arrest at the G2/M checkpoint
cell cycle arrest (Cyclin B1, p-Histone H3(S28)) (U937 cell line; 48 hours exposure): arrest at the G2/M checkpoint, and a minor cell population with increased p-histone H3(S28), indicating minor arrest in M phase
G2/M arrest [3]: failure to undergo G2/M arrest
cell death [3]: only modest increase in cell death
cyclin B1 levels [3]: failure to increase cyclin B1 levels
p-H2AX and p-Chk2 [3]: minimal increase in p-H2AX and p-Chk2
DNA damage response (levels of p-H2AX, p-p53, p-Chk2, p-ATM) (Ramos cells): does not induce changes
proportion of populations of cells arrested in the cell cycle (p-Histone H3(S28), p-CDK1, CyclinB1) (Ramos cells): does not largely increase
light sensitivity of the drug product [4]: light sensitive
